In patent US8105798B2, “Cytoplasmic activity of retinoid X receptor and its regulation by ligands and dimerization” (The Burnham Institute, priority 2003, dated 2012):
“Also recorded” adds a separate entry of the source.

What was measured:
[1] = tested on: CV-1, MGC80-3, HEK293T and HCT116 cells; assay: apoptosis determined by DAPI staining; format: cell-based; conditions: for effect on sulindac sulfide-induced apoptosis: RXRα ligands given with sulindac sulfide
Description: To determine the involvement of RXRα in sulindac sulfide-induced apoptosis of cancer cells, its effect on apoptosis of CV-1 cells (available from American Type Cell Culture, Manassas, Va., as accession number CCL-70) in the absence or presence of RXRα transfection was evaluated. FIG. 13a. RXR was cloned into a pGFP.C2 vector (GenBank Accession #: U19281) according to the procedure of Li et al., Science 289, 1159-1164 (2000). CV-1 cells were transfected with or without RXRα prior to treatment with sulindac sulfide (75.micro.M) for 24 hr. […] Louis, Mo., as catalogue number D9542), and the presence of nuclear fragmentation and/or chromatin condensation is an indicator of apoptosis. […] The requirement of RXRαwas also examined using RXRα siRNA SEQ ID No.: 12 approach. MGC80-3 cells, HEK293T (ATCC, accession number CCL-1573) and HCT116 (ATCC, accession number CCL-247) cell lines were transfected with RXRα siRNA or control siRNA using oligofectamine (from Invitrogen, Corp). Cell samples from each cell line were lysed and the cell extracts were prepared by immunoblotting to determine RXRα expression. Cells transfected with RXR.alpha siRNA or control siRNA were treated with sulindac sulfide (75.micro.M) for 24 hr, and apoptosis was determined by DAPI staining.

[2] = target: T1, RXRα ligand-binding domain (Homo sapiens, UniProt P19793); assay: competition binding assay with [3H]9-cis-RA and RXRα ligand-binding domain
T1 construct: made in house; host or cells: E. coli BL21 (pET vector, Novagen)
T1 sequence (P19793 224-462): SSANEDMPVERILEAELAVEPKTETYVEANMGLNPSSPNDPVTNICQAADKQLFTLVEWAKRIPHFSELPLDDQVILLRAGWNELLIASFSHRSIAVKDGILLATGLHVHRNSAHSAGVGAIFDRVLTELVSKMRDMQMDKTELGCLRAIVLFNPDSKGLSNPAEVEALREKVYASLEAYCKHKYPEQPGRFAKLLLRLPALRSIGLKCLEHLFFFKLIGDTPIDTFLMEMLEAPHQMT
Description: FIG. 8 is a dose response analysis illustrating that 15d-PGJ2 binds RXRα with high affinity conducted with 15d-PGJ2 in the competition binding assay. […] After separation of bound from free radioactivity by elution through Sephadex G-25 desalting columns. Bound radioactivity eluted was quantitated by liquid scientillation counting.
Therefore, Inventor investigated the possibility that 15d-PGJ2 bound directly to RXRα […] A dose response analysis (FIG. 8) was conducted with 15d-PGJ2 in the competition binding assay.
LBD expressed in E. coli. […] The reactions were then eluted through a Sephadex G-25 column to separate the bound label from free label and the RXRα LBD-bound label was quantitated by liquid scintillation counting.

TR3/RXRα heterodimer = target: T2, TR3/RXRα heterodimer (Homo sapiens, UniProt P19793); assay: gel shift assay (EMSA) of TR3/RXRα heterodimer binding to βRARE; format: biochemical
T2 construct: made in house; host or cells: in vitro translation
Description: In vitro translated RXRα and TR3 were incubated with 15d-PGJ2 (10^-5 M) for 15 min in the absence or presence of anti-TR3 or anti-RXRα antibody. Following a further incubation with ^32P-radiolabelled βRARE, the reactions were analyzed by EMSA.
To study whether 15d-PGJ2 acted on the TR3/RXRα heterodimer to inhibit the heterodimer activity, Inventor investigated whether 15d-PGJ2 affected binding of the TR3/RXRα heterodimer to the beta.RARE by gel shift assay.
RXRα and TR3 proteins are incubated in the absence or presence of a test compound. Following incubation, the mixture is incubated with ^23P-labeled βretinoic acid response element (βRARE), and the binding of the RXRα/TR3 heterodimer is analyzed by the gel-shift assay. […] The enhancement of the heterodimer binding by a compound will indicate that the compound retains the RXRα/TR3 heterodimer in the nucleus and likely induces transcriptional activity of the heterodimer through its induction of RXRα/TR3 heterodimerization at their LBD dimerization interfaces.

RARβ expression = assay: RARβ protein expression by Western analysis in cancer cells; format: cell-based
Description: The indicated cancer cells were treated for 24 h with or without trans-RA (10^-6 M), or 15d-PGJ2 (5.micro.M) or their combination. RARβ protein expression was determined by Western analysis.
The effect of sulindac sulfide on RXR transactivation was investigated for its effect of RARβ induction by all-trans-retinoic acid (tRA), which activates the RA response element (βRARE) in the RARβ promoter through an RAR/RXR heterodimer. […] The βRARE could be also activated by an RXR/PPAR heterodimer. […] Cells were treated for 24 hr with or without with trans-RA (10^-6 M), or SR11237 (10^-6 M), ciglitazone (10.micro.M), sulindac sulfide (100.micro.M) or the indicated combinations. RARβ protein expression was determined by Western analysis.

RXRα = target: T3, RXRα (Homo sapiens, UniProt P19793); assay: subcellular localization of RXRα by immunostaining / confocal microscopy; format: cell-based; conditions: for nuclear export of GFP fusion with amino acids 348-398 of RXRα: HEK293T cells; for GFP-RXRα association with mitochondria (overlay with Mito-RFP) / GFP-RXRα localization: COS-7 cells, 10^-4 M, 4 hours
T3 sequence (P19793 1-462): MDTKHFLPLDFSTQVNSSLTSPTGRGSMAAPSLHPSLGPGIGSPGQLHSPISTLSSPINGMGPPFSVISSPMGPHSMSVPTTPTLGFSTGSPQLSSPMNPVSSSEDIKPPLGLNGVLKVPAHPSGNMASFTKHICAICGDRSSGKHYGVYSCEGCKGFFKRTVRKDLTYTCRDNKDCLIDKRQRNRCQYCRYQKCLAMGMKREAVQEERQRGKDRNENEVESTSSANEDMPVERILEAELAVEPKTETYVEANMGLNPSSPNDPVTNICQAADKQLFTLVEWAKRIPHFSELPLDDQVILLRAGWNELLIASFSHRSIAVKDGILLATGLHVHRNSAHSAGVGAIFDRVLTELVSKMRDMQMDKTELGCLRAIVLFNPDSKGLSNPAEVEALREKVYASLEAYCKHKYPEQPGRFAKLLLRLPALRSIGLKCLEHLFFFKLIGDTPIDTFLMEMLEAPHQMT
Description: Expression vector for Flag-RXRα was transfected into the indicated cell line. Cells were then treated with 15d-PGJ2 (5.micro.M) for 3 hr, then immunostained with anti-Flag antibody to detect RXRα Flag-RXRα was visualized by confocal microscopy.
Expression vectors for Flag-RXRα and GFP-TR3 were transfected into PC12 cells alone or together. Cells were then treated with 15d-PGJ2 (5.micro.M) for 3 hr, then immunostained with anti-Flag antibody to detect RXRα Flag-RXRα and GFP-TR3 were visualized by confocal microscopy, and their images merged.
Cos7 cells were transfected with GFP-RXRα and Mito-REP, and treated with or without 10^-4 M indomethacin or diclofenac for 4 hours. The distribution of GFP-RXRα and Mito-REP was visualized by confocal microscopy.
For example, cells such as LNCaP prostate cancer cells are induced to apoptosis using agents such as the phorbol ester, TPA (12-0-tetradecanolphorbol 13-acetate, Cell Signaling Technology Cat. No.: 9905).
For example, heat shock protein 60 (Hsp60) is a mitochondrial specific protein. […] The treated cells are then incubated with a conjugated secondary antibody and visualized using confocal microscopy. In this example, Cy-3 or FITC conjugated secondary antibodies were used for visualizing the sub-cellular localization of RXRα or Hsp60, respectively.
A GFP-RXRα expression vector was transfected into COS-7 cells and GFP-RXRα was expressed.
A fusion protein created by combining GFP and amino acids 348-398 of RXRα, is transfected into HEK293T cells.
To determine the role of 15d-PGJ2 binding on the new RXR pathway, a confocal microscopy analysis was performed to determine subcellular localization of RXRα in the presence or absence of 15d-PGJ2.
(§1) Because RXR heterodimerizes with TR3, Inventor examined the effect of 15d-PGJ2 on TR3 subcellular localization in PC12 phaeochromocytoma cells.
To determine the mechanism of RXRα mediated apoptosis in the presence of sulindac sulfide, Inventors examined the effect of sulindac sulfide on subcellular localization of RXRα

TR3 = assay: subcellular localization of TR3 and RXRα/TR3 heterodimer by confocal microscopy; format: cell-based
Description: FIG. 10 is a series of confocal microscope images of immunostained PC12 cells illustrating that binding of 15d-PGJ2 to RXRα induces translocation of RXRα homodimer/monomer or TR3/RXRα heterodimer from the nucleus to the cytoplasm. Expression vectors for Flag-RXRα and GFP-TR3 were transfected into PC12 cells alone or together. Cells were then treated with 15d-PGJ2 (5.micro.M) for 3 hr, then immunostained with anti-Flag antibody to detect RXRα Flag-RXRα and GFP-TR3 were visualized by confocal microscopy, and their images merged.
In the absence of TPA, both TR3 and RXRα reside mainly in the nucleus. […] (FIG. 2).
as §1
Either TR3 alone, RXRα alone or TR3 and RXRα was transfected into HEK293T cells. Cells were then treated with sulindac sulfide (75.micro.M) for 6 hr. RXR.alpha and TR3 localization was determined by immunostaining, and cells were also stained by DAPI. […] Thus, the effect of sulindac sulfide on the cytoplasmic localization of TR3 depends on RXRα expression, probably due to their heterodimerization. Thus, sulindac sulfide induces nuclear export of RXRα and RXRα/TR3 heterodimer. (FIG. 14b).
The effect of sulindac sulfide on mitochondrial targeting of RXRα and TR3 was determined by treating H460 lung cancer cells with 75 micro.M sulindac sulfide for 6 hours and visualization of the cellular localization of these proteins by immunostaining. A two stage detection system was used having either anti-RXR or anti TR3 as a first stage (Santa Cruz Biotechnology and Abgent, respectively). In the absence of treatment, both RXRα and TR3 were found mainly in the nucleus.

RXRα/IKK interaction = target: T4, RXRα/IKK interaction (Homo sapiens, UniProt P19793); assay: co-immunoprecipitation assay of RXRα with IKK; format: cell-based; conditions: HEK293T cells, HA-IKKγ and Flag-RXRα; BI419 10^-6 M, 15d-PGJ2 5 μM, sulindac sulfide 75 μM, 6 hr
T4 construct: expressed in transfected cells; host or cells: HEK293T, pcDNA3 expression vectors
Text: IKK is composed of three subunits: IKKα and IKKβ, the catalytic subunits, and IKKγ, a regulatory subunit. IKK activation is required for NF-kB activation through its phosphorylation and degradation of IkB in response to proinflammatory stimuli. In addition, IKK also regulates cellular processes in a NF-kB-independent manner. We examined whether sulindac sulfide-induced cytoplasmic RXRα could interact with IKK. The indicated expression vector (pcDNA3 from Invitrogen, Corp) was transfected into HEK293T cells alone or together. After transfection, cells were treated with sulindac sulfide (75.micro.M) for 6 hr, and the interaction of RXRα and IKKβ was analyzed by co-immunoprecipitation assay. […] (FIG. 17a). The interaction was also illustrated by their cytoplasmic co-localization in cells treated with sulindac sulfide. (FIG. 17b). […] In this example, H460 cells were treated with or without sulindac sulfide (75.micro.M) for 6 hr, and cells were stained for RXRα and IKKβ (FIG. 17c). […] HA-IKKγ and Flag-RXRα expression vectors were transfected into HEK293T cells alone or together. After transfection, cells were treated with a new retinoid (BI419 (10^-6 M), 15d-PGJ2 (5.micro.M), or sulindac sulfide (75.micro.M) for 6 hr. The interaction of RXRα and IKKγ was studied by co-immunoprecipitation assay.

T2 sequence (P22736 whole entry partner, one chain of several): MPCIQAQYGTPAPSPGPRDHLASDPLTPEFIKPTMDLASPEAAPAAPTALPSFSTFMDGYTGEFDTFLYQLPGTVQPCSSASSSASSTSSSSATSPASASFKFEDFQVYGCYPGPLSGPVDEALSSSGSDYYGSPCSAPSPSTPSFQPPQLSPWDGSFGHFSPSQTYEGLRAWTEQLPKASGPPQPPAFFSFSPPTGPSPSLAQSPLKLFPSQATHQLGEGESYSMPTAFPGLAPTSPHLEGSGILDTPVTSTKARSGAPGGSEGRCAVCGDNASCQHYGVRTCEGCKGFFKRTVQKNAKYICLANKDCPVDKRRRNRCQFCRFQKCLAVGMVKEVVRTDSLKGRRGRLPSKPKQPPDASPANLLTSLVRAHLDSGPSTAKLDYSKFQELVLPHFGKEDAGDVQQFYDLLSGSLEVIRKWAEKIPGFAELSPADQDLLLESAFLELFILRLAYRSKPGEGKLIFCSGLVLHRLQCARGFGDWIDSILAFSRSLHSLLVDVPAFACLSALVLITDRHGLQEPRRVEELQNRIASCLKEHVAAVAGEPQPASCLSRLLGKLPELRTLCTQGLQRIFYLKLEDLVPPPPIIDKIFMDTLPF
T4 sequence (Q9Y6K9 whole entry partner, one chain of several): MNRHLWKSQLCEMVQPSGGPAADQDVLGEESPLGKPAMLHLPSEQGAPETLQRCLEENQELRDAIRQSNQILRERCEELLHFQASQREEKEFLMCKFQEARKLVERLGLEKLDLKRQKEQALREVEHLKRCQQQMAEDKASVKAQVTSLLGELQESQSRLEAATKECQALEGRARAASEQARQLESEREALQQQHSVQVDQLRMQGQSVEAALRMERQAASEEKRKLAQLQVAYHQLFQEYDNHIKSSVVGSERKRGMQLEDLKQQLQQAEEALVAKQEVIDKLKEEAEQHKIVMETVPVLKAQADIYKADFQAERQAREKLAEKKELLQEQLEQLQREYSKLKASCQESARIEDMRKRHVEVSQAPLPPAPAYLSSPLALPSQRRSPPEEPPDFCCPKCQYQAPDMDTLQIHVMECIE
T4 sequence (O14920 whole entry partner, one chain of several): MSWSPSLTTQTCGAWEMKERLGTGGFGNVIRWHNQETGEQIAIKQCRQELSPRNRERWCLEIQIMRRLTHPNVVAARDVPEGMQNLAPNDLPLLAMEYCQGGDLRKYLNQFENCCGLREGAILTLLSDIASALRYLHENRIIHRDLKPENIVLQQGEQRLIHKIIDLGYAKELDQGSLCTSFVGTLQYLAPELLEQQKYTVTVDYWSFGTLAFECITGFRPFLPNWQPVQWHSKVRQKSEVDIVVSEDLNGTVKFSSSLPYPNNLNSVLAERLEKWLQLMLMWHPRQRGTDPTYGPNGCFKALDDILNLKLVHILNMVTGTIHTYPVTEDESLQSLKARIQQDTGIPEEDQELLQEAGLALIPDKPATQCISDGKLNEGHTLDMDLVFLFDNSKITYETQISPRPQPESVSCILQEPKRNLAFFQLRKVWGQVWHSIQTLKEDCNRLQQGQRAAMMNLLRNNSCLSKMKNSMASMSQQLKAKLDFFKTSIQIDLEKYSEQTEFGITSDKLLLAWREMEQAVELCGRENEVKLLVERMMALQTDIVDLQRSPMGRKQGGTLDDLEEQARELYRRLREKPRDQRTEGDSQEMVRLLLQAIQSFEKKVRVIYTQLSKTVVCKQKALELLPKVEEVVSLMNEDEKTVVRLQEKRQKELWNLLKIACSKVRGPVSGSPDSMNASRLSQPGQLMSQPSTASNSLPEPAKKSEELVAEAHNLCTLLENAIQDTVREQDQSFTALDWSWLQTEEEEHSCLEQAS

CC1=C(/C=C/C(C)=C\C=C\C(C)=C\C(=O)O)C(C)(C)CCC1 [9-cis-RA]
effect on sulindac sulfide-induced apoptosis [1]: inhibitory effect

CCCCC/C=C/C=C1/C(=O)C=C[C@@H]1C/C=C\CCCC(=O)O [15d-PGJ2, 15-Deoxy-.delta^12,14-prostaglandin J2]
Ki ([2]; read-out: Ki, displacement of [3H]9-cis-RA binding to the RXR ligand-binding domain, 10 nM [3H]9-cis-RA, bacterially purified RXRα LBD): 1.8 µM
binding of TR3/RXRα heterodimer to βRARE (TR3/RXRα heterodimer; 10^-5 M, 15 min, in vitro translated RXRα and TR3, EMSA): completely abolished
binding of RXRα/TR3 heterodimer to DNA (βRARE), as control in gel-shift screening (TR3/RXRα heterodimer; stated for positive/negative control, no concentration): abolishes the heterodimer binding
induction of RARβ expression by trans-RA (RARβ expression; Calu-6 lung and ZR75-1 breast cancer cells, 15d-PGJ2 5 μM, trans-RA 10^-6 M, 24 h): potently inhibited
RARβ expression in combination with RXR ligands (RARβ expression; used together with RXR ligands): failed to induce
transfected Flag-RXRα localization (RXRα; H460 lung cancer or SY5Y neuroblastoma cells, 5 μM, 3 hr): significant amount of RXRα was found in the cytoplasm
Flag-RXRα localization (RXRα; PC12 cells, 5 μM, 3 hr): migrated from the nucleus to the cytoplasm
RXRα nuclear export (RXRα; no conditions given): induce RXRα nuclear export
GFP-TR3 localization, cotransfected with Flag-RXRα (TR3; PC12 cells, 5 μM, 3 hr): found in the cytoplasm
GFP-TR3 migration to the cytoplasm, TR3 transfected alone (TR3; PC12 cells, 5 μM, 3 hr): did not
interaction of RXRα with IKKγ (RXRα/IKK interaction): further promoted

CC1(C)CCC(C)(C)c2cc(C3(c4ccc(C(=O)O)cc4)OCCO3)ccc21 [SR11237]
effect on sulindac sulfide-induced apoptosis [1]: inhibitory effect

CCCCCCCCCCCCCC(=O)O[C@@H]1[C@@H](C)[C@@]2(O)[C@@H](C=C(CO)C[C@]3(O)C(=O)C(C)=C[C@@H]23)[C@H]2C(C)(C)[C@]12OC(C)=O [TPA, 12-0-tetradecanolphorbol 13-acetate]
nuclear export of GFP fusion with amino acids 348-398 of RXRα (RXRα): causes the fusion protein to export from the nucleus
RXRα association with mitochondria (overlay with Hsp60) (RXRα; LNCaP cells treated with TPA): associates with mitochondria
RXRα localization (RXRα; LNCaP prostate cancer cells, endogenous RXRα, TPA treatment): found in the cytoplasm
TR3 and RXRα localization (TR3; LNCaP cells treated with TPA): co-localize to the cytoplasm

O=C(O)Cc1ccccc1Nc1c(Cl)cccc1Cl [diclofenac]
GFP-RXRα association with mitochondria (overlay with Mito-RFP) (RXRα): associated with mitochondria
GFP-RXRα localization (RXRα): capable of inducing the migration; also recorded: found in the cytoplasm

COc1ccc2c(c1)c(CC(=O)O)c(C)n2C(=O)c1ccc(Cl)cc1 [indomethacin]
GFP-RXRα association with mitochondria (overlay with Mito-RFP) (RXRα): associated with mitochondria
GFP-RXRα localization (RXRα): capable of inducing the migration; also recorded: found in the cytoplasm

CCC(=C/[C@H](C)C/C=C/C(C)=C/[C@@H](C)C(=O)[C@@H](C)[C@H](O)[C@@H](C)C/C(C)=C/C(=O)O)/C=C/[C@@H]1OC(=O)C=C[C@@H]1C [leptomycin-B]
nuclear export of GFP fusion with amino acids 348-398 of RXRα (RXRα): inhibited

CC1=C(CC(=O)O)c2cc(F)ccc2/C1=C\c1ccc([S+](C)[O-])cc1 (stereo not drawn) [sulindac]
IC50 [2]: ~100 µM
apoptosis, cells without RXRα transfection ([1]; CV-1 cells, 75 μM, 24 hr, DAPI staining): little inducing effect
